The text below walks through data of publication PMC7180452, “Purine and Purine Isostere Derivatives of Ferrocene: An Evaluation of ADME, Antitumor and Electrochemical Properties” (Molecules, 2020).

SMILES strings stand for the structures. “Also recorded” adds a separate entry of the source.

Series [1] deals with hepatocellular carcinoma (HepG2). Put plainly: In vitro antiproliferative activity, HepG2. The note with it: HepG2 cells. It counts as cell-based, human. The protocol:
(§1) Antiproliferative activity of compounds 11a−11c, 12a−12c, 13a−13c, 14a−14c, 15a−15c, 16a, 23a−23c, 24a−24c, 25a−25c, 34a−34c and 35a−35c was evaluated in vitro on four human tumor cell lines (American Type Culture Collection, Manassas, VA, USA): metastatic colorectal adenocarcinoma (SW620), ductal pancreatic adenocarcinoma (CFPAC-1), hepatocellular carcinoma (HepG2) and cervical carcinoma (HeLa) as well as normal skin fibroblasts (HFF).

For the next series, the system named is MDCKII-hMDR1 cells. Briefly: Permeability and P-gp substrate assessment in MDCKII-hMDR1 cell monolayer. It counts as in vitro ADME, canine. The note with it: for Permeability classification: MDCKII-hMDR1, in words; for Efflux Ratio (BA/AB) / Papp (AB) / Papp (BA): without P-gp inhibitor; for Papp (AB) / Papp (BA): 10 µM, 60 min. The protocol:
The Madin-Darby canine kidney cells with overexpressed human multidrug-resistant gene (MDCKII-hMDR1) have been frequently used to study bidirectional transport of compounds and assess P-gp substrate potential. Apparent permeability (Papp) values were determined from the amount permeated through the MDCKII-hMDR1 cell monolayer in both the apical-basolateral (AB) and basolateral-apical (BA) direction.
MDCKII-hMDR1 cell monolayer was used for determination of permeability and P-gp substrate assessment. MDCKII-hMDR1 cells (Solvo Biotechnology, Szeged, Hungary) were grown in the controlled atmosphere (37 °C, 95% humidity, 5% CO2) in MDCK cell culture medium containing Dulbecco’s Modified Eagle Medium (DMEM) + 10% Fetal bovine serum (FBS, inactivated) + 1% glutamax-100 + 1% antibiotic/antimycotic + 1% of Non-essential amino acids Minimum Essential Medium (MEM NEAA). Cultures were split every 3–4 days using 0.05% Trypsin-EDTA. Cells were seeded 4 days prior to the experiment in concentration of 0.3 × 10^6 cells mL^−1 and cultured in CO2 incubator. On the experiment day, cell monolayers were washed with Dulbecco’s phosphate buffer saline (D-PBS) and equilibrated for 45 min in CO2 incubator in D-PBS containing 1% DMSO (1% v/v) with or without Elacridar (2 µM). Compounds, in final concentration of 10 µM, were prepared in transport medium containing Lucifer yellow (100 µM), with DMSO contentment of 1% (v/v) and in the presence and without Elacridar. Lucifer yellow calibration curve was prepared by serial dilution (12 points, with 100 µM as the highest point). Monolayer integrity was examined by fluorescent measurement on a Microplate reader Infinite F500 (Tecan) by using an excitation of 485 nm and emission of 530 nm. Experiment was started by applying the solutions containing test compounds to apical and basolateral side of the cell monolayer. Starting compound concentration (C0) was sampled at the start of the experiment and apical and basolateral compartments were sampled after incubation at 37 °C with gentle shaking for 60 min. Compound were tested in duplicate. Amprenavir was used as a control with low permeability and as a P-gp substrate without inhibitor presence, turning into a highly permeable compound with the inhibitor present.
Samples were analyzed on an ABSciex API 4000 Triple Quadrupole Mass Spectrometer (Sciex, Division of MDS Inc., Toronto, ON, Canada) coupled to a UHPLC Nexera X2 (Shimadzu, Kyoto, Japan). Samples (1 µL) were injected onto a reversed phase HPLC column Luna Omega Polar C18, 30 × 2.1 mm i.d., 1.6 µm particle size (Phenomenex) which was kept at 50 °C. Aqueous solution was 0.1% formic acid in deionized water and the organic mobile phase was […]. Flow rate was kept at 0.7 mL min^−1 for all measurements. Fast-gradient elution was as follows: 2% of organic mobile phase through 0.15 min, from 2 to 95% of organic mobile phase (0.15−0.7 min), 95% of organic mobile phase (0.7−1.1 min), from 95 to 2% of organic mobile phase (1.1−1.11 min), and re-equilibration with 98% of aqueous mobile phase (1.11−1.5 min). Positive ion mode with turbo spray, an ion source temperature of 550 °C and a dwell time of 75 ms were utilized for mass spectrometric detection. Quantitation was performed using multiple reaction monitoring (MRM) at the specific transition corresponding to the compound of interest. Warfarin was used as an internal standard. The ratios between compound and internal standard peak areas were used instead of real compound concentration. Apparent permeability coefficient, Papp (nm s^−1) values were calculated by using the following Equation (1):Papp [nm s^−1] = (dQ/dT) × (1/C0) × (1/A)(1) where: dQ/dT = permeability rate; C0 = initial concentration in donor compartment; A = surface area of the cell monolayer (0.7 cm^2). […]

Series [2] has as its system metastatic colorectal adenocarcinoma (SW620). Put plainly: In vitro antiproliferative activity, SW620. The following applies: SW620 cells. It counts as cell-based, human. The protocol:
as §1

Series [3] in a line: Turbidimetric kinetic solubility assay. The following applies: for Kinetic Solubility: PBS, 1% DMSO, 37 °C, 2 h, estimated range; for Solubility classification: kinetic solubility, in words.
Experimental: The turbidimetric solubility assay, which allows a rapid determination of the kinetic solubility of newly synthesized compounds using small amounts of their DMSO solutions, was used to assess the kinetic solubility [38].
The compounds’ DMSO stock solutions in concentration of 10 mM were serially diluted by factor 3.3×, 3×, 3.3× and 3× in DMSO. Prepared solutions were spiked into phosphate-buffered saline (PBS, 100 mM) to obtain final compounds’ concentrations of 100, 30, 10, 3 and 1 µM (3 µL of prepared dilutions were spiked to 297 µL of PBS, with final DMSO content of 1%, v/v). All compounds were tested in two replicas per concentration. Prepared solutions were incubated at 37 °C for 2 h with gentle shaking. Blank solutions were also prepared by spiking DMSO in PBS buffer (1% of DMSO, v/v). […] Compound/control samples are compared to the blank solution. […] Results were expressed as an estimated solubility range (lower and upper bound).
Series [4] relates to normal skin fibroblasts (HFF). Put plainly: Cytotoxicity on non-tumor cells, HFF. It counts as cell-based, human. The protocol: as §1
Series [5] is described as follows: Chrom logD determination (fast-gradient HPLC). The note with it: pH 7.4.
Experimental: The distribution coefficient Chrom logD, a parameter used to assess the lipophilicity of compounds [36, 37], was determined for novel purine and purine isosteres with a ferrocene motif as shown in Table 1.
The distribution coefficient, Chrom logD, was determined from compounds’ gradient retention times by employing a high-performance liquid chromatography method with fast acetonitrile gradient. Compounds were prepared for analysis in final concentration of 1.25 mM by dilution of 10 mM stock solutions in DMSO with acetonitrile. Aqueous mobile phase was 50 mM ammonium acetate adjusted with ammonia solution to pH 7.4 and the organic mobile phase was acetonitrile. A reversed phase HPLC column Luna C18, 50 × 3 mm i.d., 5 µm particle size (Phenomenex, Torrance, CA, USA) was used for analysis. Sample injection volume was 2 µL and the flow rate was 1 mL min^−1. All compounds were analysed in duplicates. Fast-gradient elution was as follows: from 0 to 100% of acetonitrile (0−3 min), 100% of acetonitrile (3.0−3.5 min), from 100 to 0% of acetonitrile (3.5−3.7 min), and re-equilibration with 100% of aqueous mobile phase (3.7−5.0 min). All measurements were performed on an HPLC-DAD instrument Agilent 1100 Series (Agilent Technologies, Santa Clara, CA, USA) coupled with a mass spectrometer Micromass Quattro API (Waters, MA, USA). MassLynx software, version 4.1 (Waters, Manchester, UK) was used for data acquisition and processing. Before compound analysis, a calibration step was performed. A set of standard compounds with literature CHI values [36] were plotted against gradient retention times to obtain a calibration equation, which was used to determine CHI value from the compounds’ retention times.

`Clc1ncnc2c1ccn2Cc1cn(-[c-]2cccc2)nn1.[Fe+2].c1cc[cH-]c1` [Compound 11c, 4-Chloro-7-[1-(1-ferrocenyl-1,2,3-triazol-1-yl)methyl]-7H-pyrrolo[2,3-d]pyrimidine]: in series [1], it took 31.9 ± 4.32 µM to reach half-maximal inhibition (IC50). In addition, in the series with MDCKII-hMDR1 cells, the Permeability classification entry is reported as “moderate AB permeability”, the “Efflux Ratio (BA/AB)” value turned out to be 2.9, the “Papp (AB)” value is 5.3 ×10⁻⁶ cm/s and the “Papp (BA)” value turned out to be 14.9 ×10⁻⁶ cm/s. In series [2], this compound returned a concentration for half-maximal inhibition (IC50) of 9.07 ± 1.21 µM. Besides, the “Kinetic Solubility” value in series [3] was 3 to 10 µM. The same compound registered an IC50 in series [4] of 5.89 ± 1.88 µM. For the same compound, the “Chrom logD” value in series [5] is 5.62.
`Clc1ncnc2c1ncn2Cc1cn(C[c-]2cccc2)nn1.[Fe+2].c1cc[cH-]c1` [Compound 13a, 6-Chloro-9-[1-(1-ferrocenymethyl-1,2,3-triazol-4-yl)methyl]-9H-purine] came in with an IC50 in series [1] of 19.9 ± 5.12 µM. For the same compound, in the series with MDCKII-hMDR1 cells, the Permeability classification entry is listed as “moderate to high AB permeability; also recorded: good permeability”, the “Efflux Ratio (BA/AB)” value stood at 2.9, the “Papp (AB)” value worked out at 8.3 ×10⁻⁶ cm/s and the “Papp (BA)” value is 23.8 ×10⁻⁶ cm/s. Half-maximal inhibition in series [2] (IC50) required 14.4 ± 3.02 µM. Also, in series [3], the “Kinetic Solubility” value was >100 µM and the Solubility classification result was “high solubility”. This compound also registered an IC50 in series [4] of 3.98 ± 0.17 µM. The “Chrom logD” value in series [5] is on record as 4.27.
As for `CC([c-]1cccc1)n1cc(Cn2cnc3ncnc(Cl)c32)nn1.[Fe+2].c1cc[cH-]c1` (centres unmarked) [Compound 15b, 6-Chloro-7-[1-(1-ferrocenyl-1-methylmethyl-1,2,3-triazol-4-yl)methyl]-7H-purine], in series [1], inhibition was half-maximal at 37.1 ± 1.84 µM (IC50). In the series on MDCKII-hMDR1 cells, the Permeability classification result is on record as “moderate AB permeability”, the “Efflux Ratio (BA/AB)” value came out at 10.7, the “Papp (AB)” value was 3.2 ×10⁻⁶ cm/s and the “Papp (BA)” value was determined as 33.2 ×10⁻⁶ cm/s. In addition, in series [2], the IC50 is 15.5 ± 3.24 µM. In series [3], the “Kinetic Solubility” value is reported as >100 µM and the Solubility classification entry is recorded as “high solubility”. The compound further returned an IC50 in series [4] of 0.88 ± 1.06 µM. In series [5], the “Chrom logD” value is on record as 4.15.

The IC50 is the concentration that inhibits the measured activity by half.
